From patent publication US7935698B2, “Heteroaryl-hydrazone compounds” (Synta Pharmaceuticals Corporation, priority 2003, dated 2011) come the findings set out here.

Each structure is given as a SMILES string.

The test system of the experiment is IL-12 production. The experiment can be described thus: Human in vitro assay: inhibition of IL-12 production in stimulated human PBMC or THP-1 cells (sandwich ELISA). Particulars: primed with IFNγ and stimulated with LPS or SAC, IL-12 by ELISA. In kind it is cell-based. From the text: The biological activities of the compounds of the invention can be evaluated by a number of cell-based assays. One of such assays can be conducted using cells from human peripheral blood mononuclear cells (PBMC) or human monocytic cell line (THP-1). The cells are stimulated with a combination of human interferon-γ (IFNγ) and lipopolysaccharide or a combination of IFNγ and Staphylococcus aureus Cowan I in the presence of a test compound. The level of inhibition of IL-12 production can be measured by determining the amount of p70 by using a sandwich ELISA assay with anti-human IL-12 antibodies. IC50 of the test compound can then be determined. Specifically, PBMC or THP-1 cells are incubated with the test compound. Cell viability was assessed using the bioreduction of MTS [3-(4,5-dimethylthiazol-2-yl)-5-(3-carboxymethoxyphenyl)-2-(4-sulfophenyl)-2H-tetrazolium] (Promega, Madison, Wis.).
Reagents. Staphylococcus aureus Cowan I (SAC) is obtained from Calbiochem (La Jolla, Calif.), and lipopolysaccharide (LPS, Serratia marscencens) is obtained from Sigma (St. Louis, Mo.). Human and mouse recombinant IFNγ are purchased from Boehringer Mannheim (Mannheim, Germany) and Pharmingen (San Diego, Calif.), respectively.
Human In Vitro Assay. Human PBMC were isolated by centrifugation using Ficoll-Paque (Pharmacia Biotech, Uppsala, Sweden) and prepared in RPMI medium supplemented with 10% fetal calf serum (FCS), 100 U/mL penicillin, and 100 μg/mL streptomycin. PBMC were plated in wells of a 96-well plate at a concentration of 5×10^5 cells/well, and primed by adding IFNγ (30 U/mL) for 22 h and stimulated by adding LPS (1 μg/mL), or by adding IFNγ (100 U/mL) and then stimulated by adding SAC (0.01%). A test heteroaryl hydrazone compound was dissolved in DMSO, and added to wells of the 96-well plate. The final DMSO concentration was adjusted to 0.25% in all cultures, including the compound-free control. Human THP-1 cells were plated in wells, primed by adding IFNγ (100 U/mL) for 22 h and stimulated by adding SAC (0.025%) in the presence of different concentrations of the heteroaryl hydrazone compound. Cell-free supernatants were taken 18 h later for measurement of cytokines. Cell viability was assessed using the bioreduction of MTS. Cell survival was estimated by determining the ratio of the absorbance in compound-treated groups versus compound-free control.
The supernatant was assayed for the amount of IL-12p40, IL-12p70, or IL-10 by using a sandwich ELISA with anti-human antibodies, i.e., a Human IL-12 p40 ELISA kit from R&D Systems (Berkeley, Calif.), and a Human IL-12 p70 or IL-10 ELISA kit from Endogen (Cambridge, Mass.). Assays were based on the manufacturer's instructions.
The biological activities of heteroaryl hydrazone compounds were tested on human PBMC or THP-1 cells.
`Clc1cccc(NN=Cc2cc(N3CCOCC3)nc(OCCc3ccccn3)n2)c1` [Compound 2, N-(3-Chloro-phenyl)-N′-[6-morpholin-4-yl-2-(2-pyridin-2-yl-ethoxy)-pyrimidin-4-ylmethylene]-hydrazine]: the IC50 came to 10 nM.

With `COc1cccc(NN=Cc2cc(N3CCOCC3)nc(OCCc3ccccn3)n2)c1` [Compound 3, N-(3-Methoxy-phenyl)-N′-[6-morpholin-4-yl-2-(2-pyridin-2-yl-ethoxy)-pyrimidin-4-ylmethylene]-hydrazine], the IC50 came to 2.2 nM.

As for `Cc1cccc(NN=Cc2cc(N3CCOCC3)nc(OCCc3ccccn3)n2)c1` [Compound 1, N-[6-Morpholin-4-yl-2-(2-pyridin-2-yl-ethoxy)-pyrimidin-4-ylmethylene]-N′-m-tolyl-hydrazine], the IC50 is 2.2 nM.

For `Cc1ccc(C)c(NN=Cc2cc(N3CCOCC3)nc(OCCc3ccccn3)n2)c1` [Compound 4, N-(2,5-Dimethyl-phenyl)-N′-[6-morpholin-4-yl-2-(2-pyridin-2-yl-ethoxy)-pyrimidin-4-ylmethylene]-hydrazine], the IC50 was 6.5 nM.

In the case of `Cc1cccc(NN=Cc2cc(OCCc3ccccn3)nc(N3CCOCC3)n2)c1` [Compound 6, N-[2-Morpholin-4-yl-6-(2-pyridin-2-yl-ethoxy)-pyrimidin-4-ylmethylene]-N′-m-tolyl-hydrazine], the IC50 was 40 nM.

By IC50 is commonly meant the concentration that inhibits the measured activity by half.
